Key:
Assay type in all cases: cell-based
[1] = tested on: Bovine Pulmonary Artery Endothelium; test: Transendothelial electrical resistance (TER) across bovine pulmonary artery endothelium; conditions: VEGF 100 ng/ml, Sph 1-P 1 μM, HGF 20 ng/ml
Protocol: Bovine pulmonary artery endothelial cells were purchased from the American Type Culture Collection (ATCC®, Rockville, Md.) and utilized at passage 19-24. Cells were maintained in Medium 199 (Life Technologies, Rockville, Md.) supplemented with 20% (v/v) colostrum-free bovine serum (CFBS) (Irvine Scientific, Santa Ana, Calif.), 15 μg/ml endothelial cell growth supplement (Upstate Biotechnology, Lake Placid, N.Y.), 1% antibiotic and antimycotic, and 0.1 mM non-essential amino acids (Life Technologies). Human pulmonary artery endothelial cells were purchased from Clonetics (Walkersville, Md.), cultured in EBM-2 complete medium (Clonetics) and utilized at passage 5-10. Human alveolar epithelial cells (A549) were purchased from ATCC® and cultured in the same medium as the bovine endothelial cells, except that the endothelial cell growth supplement was omitted. All cells were maintained at 37° C. in a humidified atmosphere of 5% CO2 and 95% air.
Electrical resistance of EC monolayers was measured using electrical cell impedance sensor system (Applied Biophysics Inc., Troy, N.Y.) as described in Garcia, J. G. N. et al. (2000) J. Appl. Physiol. 89:2333-2343. Cells grown on gold microelectrodes (10^−3 cm^2) in polycarbonate wells act as insulating particles, and the resistance across the monolayers (transendothelial electrical resistance, or TER) is measured in real time. As cells adhere on the microelectrode and intercellular cell contacts are formed or in response to agents which increase junctional integrity, the TER increases (Garcia, J. G. N. et al. (2001) J. Clin. Invest. 108:689-711). In contrast, cell retraction, rounding, or loss of adhesion is reflected by decreases in TER (Garcia, J. G. N. et al. (2000) J. Appl. Physiol. 89:2333-2343). These measurements provide a highly sensitive biophysical assay that indicates the state of cell shape, focal adhesion, and endothelial barrier function (Giaever, I. and Keese, C. R. (1993) Nature 366:591-592; Tiruppathi, C. et al. (1992) Proc. Natl. Acad. Sci. USA 89:7919-7923). All electrical resistance data are presented as normalized values. Briefly, current was applied across the electrodes by a 4000 Hz AC voltage source with an amplitude of 1 V in series with a 1 MΩ resistance to approximate a constant current source (−1 μA). The small gold electrode and the larger counter electrode (1 cm^2) were connected to a phase-sensitive lock-in amplifier (5301A; EG&G Instruments Corp, Princeton, N.J.) with a built in differential preamplifier (5316A; EG&G Instruments Corp.). The in-phase and out-of-phase voltages between the electrodes were monitored in real time with the lock-in amplifier and converted to scalar measurements of transendothelial impedance, of which resistance was the primary focus. […] For some experiments, total TER was vectorially resolved into components reflecting resistance to current flow beneath the cell layer (α) and resistance to current flow between adjacent cells (Rb) as described in Garcia et al. (2000) supra utilizing the method of Giaiver and Keese which models the endothelial monolayer mathematically (Giaever, I. and Keese, C. R. (1993) Nature 366:591-592). Thus, changes in α reflect alterations in the net state of cell-matrix adhesion, whereas changes in Rb reflect alterations in the integrity of cell-cell adhesion. TER values from each microelectrode were pooled at discrete time points and plotted versus time as the mean±standard error of the mean (Garcia et al. (2000) supra).

[2] = tested on: human alveolar epithelial cells (A549); test: Electrical resistance of A549 alveolar epithelial cells on gold microelectrodes; conditions: HGF 100 ng/mL; sphingosine 1-phosphate 1 μM
Protocol: FIGS. 1A-1D depict HGF-mediated increases in human transendothelial electrical resistance (TER). FIG. 1A: Human pulmonary artery endothelial cells were grown to confluence on gelatinized gold microelectrodes. Two hours prior to TER measurement, growth medium was replaced with serum-free M199. Serial-diluted HGF was added to cells at indicated concentrations and TER monitored for 2.5 hr. […] The result shown is a representative TER tracing of three independent experiments. FIG. 1B: Similar to FIG. 1A, human alveolar epithelial cells (A549) were grown on gold microelectrodes and challenged with vehicle, HGF, (100 ng/mL) or sphingosine 1-phosphate (1 μM). […]
Electrical resistance of EC monolayers was measured using electrical cell impedance sensor system (Applied Biophysics Inc., Troy, N.Y.) as described in Garcia, J. G. N. et al. (2000) J. Appl. […] Cells grown on gold microelectrodes (10^−3 cm^2) in polycarbonate wells act as insulating particles, and the resistance across the monolayers (transendothelial electrical resistance, or TER) is measured in real time. […] The in-phase and out-of-phase voltages between the electrodes were monitored in real time with the lock-in amplifier and converted to scalar measurements of transendothelial impedance, of which resistance was the primary focus. […]

[3] = tested on: Rac GTPase; test: Rac GTPase activity, p21 Rac-binding domain assay; conditions: HGF 10 ng/mL or Sph-1-P 1 μM for 1 or 5 min
Protocol: Endothelial cells grown in 100 mm dishes were incubated with agonists in serum-free M199. Cells were lysed in 500 μl Mg^2+ lysis buffer (Upstate Biotechnology, Lake Placid, N.Y.) and homogenized by pipetting. After a brief centrifugation to remove the cell debris, 300 μl of supernatant was incubated with the agarose-conjugated p21-binding domain (PBD) of human PAK-1 (10 μg, 30 min, Upstate Biotechnology). The agarose beads were washed with 1 ml of lysis buffer 5 times and re-suspended in 30 μl of 2×SDS buffer. After 10 min centrifugation at 14,000 g, 15 μl of supernatant from each sample was subjected to electrophoresis in 15% PAGE. […] For total Rac protein measurement, 5 μl of the original cell lysates were used for electrophoresis and western analysis. […] Pulmonary artery endothelial cells were incubated with HGF (10 ng/mL) or Sph-1-P (1 μM) for 1 or 5 min. Cells were lysed, supernatants collected, and activated GTP-bound Rac was precipitated by agarose-conjugated human PAK-1 p21-binding domain and subsequently immunoblotted by anti-Rac mAb. Total Rac protein was detected using cell lysates.

[4] = vs vehicle control, ±SEM, thrombin 100 μM

SMILES: CCCCCCCCCCCCC/C=C/[C@@H](O)[C@@H](N)COP(=O)(O)O [Sph 1-P, sphingosine 1-phosphate, reference compound]
- TER response in words ([1]; thrombin, 10-60 min): brisk and sustained increase in TER
- changes in TER 30 min [1, 4]: +50 ± 6%
- changes in TER 60 min [1, 4]: +35 ± 4%
- changes in TER 10 min ([1]; vs vehicle control, ±SEM, thrombin 100 μM, (+) increased, (−) decreased): +50 ± 5%
- effect on electrical resistance of epithelial cells [2]: did enhance epithelial cell integrity
- Rac activity [3]: rapidly and transiently increases Rac activity
